Laboratory results reported in patent US8173652B2, “Isoxazole-isoxazoles and isoxazole-isothiazoles” (Hoffmann-La Roche Inc., priority 2009, dated 2012).

Molecular target: T1, human GABA A receptor α5β3γ2 (Homo sapiens, UniProt P18507+P31644)
T1 construct: expressed in transfected cells; host or cells: HEK293 (transiently transfected), membrane preparation
Assay: [3H]flumazenil competition binding assay, human GABA A α5 receptor
Conditions: human α5β3γ2 receptors transiently transfected in HEK293 cells; displacement of [3H]flumazenil 0.5 nM; 1 hour at 4° C.; means of two determinations; read-out: hKi GABA A α5
Protocol: Membrane Preparation and Binding Assay
The affinity of compounds at GABA A receptor subtypes was measured by competition for [3H]flumazenil (85 Ci/mmol; Roche) binding to HEK293 cells expressing rat (stably transfected) or human (transiently transfected) receptors of composition α1β3γ2, α2β3γ2, α3β3γ2 and α5β3γ2.
Cell pellets were suspended in Krebs-tris buffer (4.8 mM KCl, 1.2 mM CaCl2, 1.2 mM MgCl2, 120 mM NaCl, 15 mM Tris; pH 7.5; binding assay buffer), homogenized by polytron for ca. 20 sec on ice and centrifuged for 60 min at 4° C. (50000 g; Sorvall, rotor: SM24=20000 rpm). The cell pellets were re-suspended in Krebs-tris buffer and homogenized by polytron for ca. 15 sec on ice. Protein was measured (Bradford method, Bio-Rad) and aliquots of 1 mL were prepared and stored at −80° C.
Radioligand binding assays were carried out in a volume of […] (96-well plates) which contained […] of cell membranes, [^3H]flumazenil at a concentration of 1 nM for α1, α2 and α3 subunits and 0.5 nM for α5 subunits and the test compound in the range of […]. Nonspecific binding was defined by 10^−5 M diazepam and typically represented less than 5% of the total binding. Assays were incubated to equilibrium for 1 hour at 4° C. and harvested onto GF/C uni-filters (Packard) by filtration using a Packard harvester and washing with ice-cold wash buffer (50 mM Tris; pH 7.5). After drying, filter-retained radioactivity was detected by liquid scintillation counting. Ki values were calculated using Excel-Fit (Microsoft) and are the means of two determinations.

SMILES | Ki [nM]
Cc1onc(-c2ccccn2)c1COc1cc(C(=O)NC(C)C)sn1 [Example 36, 3-(5-Methyl-3-pyridin-2-yl-isoxazol-4-ylmethoxy)-isothiazole-5-carboxylic acid isopropyl-amide] | 15
Cc1onc(-c2ccccn2)c1COc1cc(C(=O)NCCO)sn1 [Example 37, 3-(5-Methyl-3-pyridin-2-yl-isoxazol-4-ylmethoxy)-isothiazole-5-carboxylic acid (2-hydroxy-ethyl)-amide] | 17.6
Cc1onc(-c2ccc(F)cn2)c1COc1cc(C(=O)NC(C)C)sn1 [Example 38, 3-[3-(5-Fluoro-pyridin-2-yl)-5-methyl-isoxazol-4-ylmethoxy]-isothiazole-5-carboxylic acid isopropylamide] | 11.8
Cc1onc(-c2ccc(F)cn2)c1COc1cc(C(=O)NCCO)sn1 [Example 39, 3-[3-(5-Fluoro-pyridin-2-yl)-5-methyl-isoxazol-4-ylmethoxy]-isothiazole-5-carboxylic acid (2-hydroxy-ethyl)-amide] | 13
Cc1onc(-c2ccc(F)cn2)c1COc1cc(C(=O)NC2CCOC2)sn1 (stereo not shown) [Example 40, 3-[3-(5-Fluoro-pyridin-2-yl)-5-methyl-isoxazol-4-ylmethoxy]-isothiazole-5-carboxylic acid (tetrahydro-furan-3-yl)-amide] | 3.8
CCCCc1noc(C)c1COc1cc(C(=O)NC2CCOC2)sn1 (stereo not shown) [Example 41, 3-(3-Butyl-5-methyl-isoxazol-4-ylmethoxy)-isothiazole-5-carboxylic acid (tetrahydro-furan-3-yl)-amide] | 28.9
Cc1onc(-c2ccc(F)cc2)c1COc1cc(C(=O)N2CC3(COC3)C2)on1 [Example 42, {3-[3-(4-Fluoro-phenyl)-5-methyl-isoxazol-4-ylmethoxy]-isoxazol-5-yl}-(2-oxa-6-aza-spiro[3.3]hept-6-yl)-methanone] | 9.8
CC(C)NC(=O)c1cc(OCc2c(-c3ccc(F)cc3)noc2CO)no1 [Example 43, 3-[3-(4-Fluoro-phenyl)-5-hydroxymethyl-isoxazol-4-ylmethoxy]-isoxazole-5-carboxylic acid isopropylamide] | 8.8
O=C(NC1CCOCC1)c1cc(OCc2c(-c3ccc(F)cc3)noc2CO)no1 [Example 44, 3-[3-(4-Fluoro-phenyl)-5-hydroxymethyl-isoxazol-4-ylmethoxy]-isoxazole-5-carboxylic acid (tetrahydro-pyran-4-yl)-amide] | 2.8
O=C(NCC(F)(F)F)c1cc(OCc2c(-c3ccc(F)cc3)noc2CO)no1 [Example 45, 3-[3-(4-Fluoro-phenyl)-5-hydroxymethyl-isoxazol-4-ylmethoxy]-isoxazole-5-carboxylic acid (2,2,2-trifluoro-ethyl)-amide] | 10
